# Reference: patent US7223864B2, “2-hydroxyethidium, methods of preparation and uses thereof” (MCW Research Foundation, Inc., priority 2004, dated 2007)
# What was measured:
# [1] = test system: X/XO-catalyzed oxidation of HE (superoxide); assay: Oxidation of HE by xanthine/xanthine oxidase (X/XO), fluorescence; type: biochemical; conditions: for effect on increase in fluorescence due to X/XO-catalyzed oxidation of HE: HE 50 μM, DNA 250 μg mL^−1, SOD 20 μg mL^−1, catalase 1000 U mL^−1
# Procedure: (A) Incubation mixtures consisted of HE (50 μM), xanthine (1 mM), DTPA (100 μM), and XO (0.05 U mL^−1) in aerated phosphate buffer (100 mM, pH 7.4). Reaction was initiated by the addition of XO and the fluorescence spectrum recorded after 30 min. Shown for comparison is the spectrum obtained from E^+ (50 μM) obtained under identical experimental conditions. (B) Same as (A) but in the presence of DNA (250 μg mL^−1). (C) Incubations contained HE (50 μM), DTPA (100 μM) and DNA (250 μg mL^−1) and xanthine (1 mM) or XO (0.05 U mL^−1), both in the presence and absence of SOD (20 μg mL^−1). (D) Same as (B) but in the presence of catalase (1000 U mL^−1).
# (A) Incubation initially consisted of HE (50 μM), xanthine (1 mM), XO (0.025 U mL^−1) and DTPA (100 μM) in phosphate buffer (100 mM, pH 7.4). A 50 μM of DEA/NO added at the point indicated by downward arrow. After the increase in fluorescence intensity ceased, an additional bolus amount of HE was added. (B) Same as (A) except XO (0.005 U mL^−1) and DEA/NO were added at a much lower concentration (10 μM).
# (§1) Fluorescence measurements—The oxidation of HE in a superoxide generating system was performed on a Shimadzu RF-5301 PC spectrofluorometer (Shimadzu Scientific Instruments Inc., Japan). Typically, excitation was at 510 nm with a 3 or 5 nm slit width and the spectra were recorded over a wavelength region of 540–800 nm using a 10 or 20 nm slit width. The fluorescence emission spectra indicate the actual color of the product of superoxide and HE reaction, E^+ and HE.
# [2] = literature value used in competition analysis; cited from earlier work
# [3] = Fluorescence measurements (fluorescence spectral characteristics); type: physicochemical; conditions: for Fluorescence color / Emission maximum (nm): /DNA labels = in the presence of DNA; for Extinction coefficient (mM^−1)*: E^+: excitation maximum 518 nm, HE/superoxide product: excitation maximum 480 nm, slit 3 nm, emission slit 20 nm; for Emission maximum (nm): phosphate buffer (100 mM, pH 7.4)
# Procedure: as §1
# Superoxide generation was measured to be 8 μM/min.
# [4] = Competition kinetic analysis of the reaction between HE and superoxide; conditions: tentative, competition with BMPO and Cu, Zn-SOD
# Procedure: Kinetic analysis of the reaction between HE and superoxide—The rate constant between HE and superoxide was calculated from competition experiments. At saturating concentrations of HE, superoxide will be consumed as follows:
# Dismutation of superoxide was not considered in our analysis, because at saturating concentrations of HE (compared to superoxide flux), this reaction is negligible (Vásquez-Vivar, J. et al. Free Radic. Biol. Med. 31:975–985, 2001). Thus, assuming a steady-state approximation, the rate of superoxide consumption will be equal to new fluorescent product (P) formation, defined by
# [formula] where kHE is the apparent rate constant for the reaction of HE with superoxide under the experimental conditions. Therefore, the ratio between V and V0 that corresponds to the rate of new product formation in the presence and absence of scavenger, respectively, is defined by
# [formula] The values of V and V0 can be calculated from variations in fluorescence intensity of new product over time. In these experiments, 5-tert-butoxycarbonyl 5-methyl-1-pyrroline N-oxide (BMPO) and bovine Cu, Zn-SOD were used to trap or dismutate superoxide. The rate constant used for the reaction between BMPO and superoxide was 77±5 M^−1 s^−1 (Rosen, G. et al. J. Biol. Chem. 277:40275–40280, 2002) and 3×10^9 M^−1 s^−1 for Cu, Zn-SOD. […]
# [5] = test system: oxidation of HE by potassium superoxide; assay: Oxidation of HE by potassium superoxide, fluorescence; type: biochemical; conditions: SOD 20 μg mL^−1, KO2 1.1 mM
# Procedure: (A) Incubations consisted of HE (50 μM), DTPA (100 μM), and KO2 in the presence and absence of DNA (250 μg mL^−1) in phosphate buffer (100 mM, pH 7.4). Superoxide solution was prepared by adding 1 mg of KO2 in 1 mL of dry DMSO and vortexed vigorously for 10 min. The reaction was initiated by adding 40 μL of freshly prepared KO2 in DMSO to 0.46 mL of the above buffer (final concentration of KO2 was 1.1 mM). (B) Same as (A) but also containing SOD (20 μg mL^−1). The extent of oxidation of HE under these conditions is much less than that observed in X/XO.
# as §1
# [6] = biological target: T1, endothelial nitric oxide synthase (eNOS) (Bos taurus, UniProt P29473); assay: Oxidation of HE by endothelial NOS, fluorescence; type: biochemical; conditions: SOD 20 μg mL^−1; BH4 10 μM; Ca^2+/CaM
# T1 construct: made in house; host or cells: Escherichia coli
# Procedure: (A) Incubations consisted of NADPH (0.1 mM), DTPA (100 μM), HE (50 μM), L-arginine (0.1 mM), purified eNOS (6.25 μg mL^−1), and Ca^2+ (0.2 mM)/CaM (20 μg mL^−1) in a HEPES buffer (50 mM, pH 7.4). Spectra were obtained 30 min after the addition of eNOS to different incubation mixtures. […] (B) Time-dependent changes in fluorescence of the product formed from an incubation mixture containing NADPH (0.1 mM), HE (50 μM), DTPA (100 μM), Ca^2+ (0.2 mM)/CaM (20 μg mL^−1), and purified eNOS (6.25 μg mL^−1) in a HEPES buffer (50 mM, pH 7.4). (C) Same as (B) except in the presence of SOD (20 μg mL^−1).
# as §1
# [7] = test system: Bovine aortic endothelial cells; assay: Intracellular detection of superoxide with HE in menadione-treated cells; type: cell-based; conditions: 25 min menadione exposure, then 10 μM HE for 20 min; versus control cells
# Procedure: Bovine aortic endothelial cells were treated with menadione, a redox-cycling quinone known to induce cellular oxidative stress. After 25 min of exposure, cells were washed free of extracellular menadione and treated with 10 μM of HE for 20 min. Cells were washed and fluorescent images obtained in a fluorescence microscope. […] Cells were lysed and products extracted with n-butanol. After centrifugation to separate out the cell debris, the top layer of butanol was dried, dissolved in water, and HPLC/fluorescence chromatogram was obtained (FIG. 12). The intense peak eluting at 29 min corresponds to that of 2-hydroxyethidium (FIG. 12, top trace). For better separation in biological samples, a linear increase in CH3CN concentration from 10% to 70% in 46 min was used instead of a linear increase in CH3CN concentration from 10% to 40% in 30 min. The other HPLC analysis conditions were same as described above.
compound,measurement,setting,value
"CCN(CC)[N+]([O-])=NO [DEA/NO, 2-(N,N-diethylamino)-diazenolate-2-oxide]",effect on increase of fluorescence due to superoxide-dependent oxidation of HE by X/XO,"[1]; DEA/NO 10 μM, XO 0.005 U mL^−1",inhibited
catalase,effect on increase in fluorescence due to X/XO-catalyzed oxidation of HE,[1],increased slightly
"CC(C)(C)OC(=O)C1(C)CCC=[N+]1[O-] (centres unmarked) [BMPO, 5-tert-butoxycarbonyl 5-methyl-1-pyrroline N-oxide]",rate constant used for the reaction with superoxide,[2],77 ± 5 M⁻¹ s⁻¹
"CCN1c2cc(N)ccc2-c2ccc(N)cc2C1c1ccccc1 (centres unmarked) [HE, Hydroethidine (dihydroethidium)]",Fluorescence color,[3],Red
same,Extinction coefficient (mM^−1)*,[3],48 mM⁻¹
same,Emission maximum (nm),[3],595 nm
same,rate constant between the superoxide anion and HE,[4],approximately 2.6±0.6×10^5 M^−1 s^−1
"Cu, Zn-SOD: Bovine copper, zinc superoxide dismutase",effect on formation of fluorescent product from HE and potassium superoxide,[5],inhibited the formation of this product
same,rate constant used for the reaction with superoxide,[2],3e+09 M⁻¹ s⁻¹
same,effect on oxidation of HE by eNOS,[6],inhibited the oxidation of HE
same,effect on increase in fluorescence due to X/XO-catalyzed oxidation of HE,[1],completely nullified
"CC[n+]1c(-c2ccccc2)c2cc(N)ccc2c2cc(O)c(N)cc21 [HE/superoxide product, 2-hydroxyethidium]",Fluorescence color,[3],Orange
same,Extinction coefficient (mM^−1)*,[3],285 mM⁻¹
same,Emission maximum (nm),[3],586 nm
same,emission maximum,"[3]; purified product, in the presence of DNA (250 μg mL^−1) in phosphate buffer",567 nm
CC1=CC(=O)c2ccccc2C1=O [menadione],fluorescence of cells after HE (fluorescence microscope),[7],intense red fluorescence
"CC[n+]1c(-c2ccccc2)c2cc(N)ccc2c2ccc(N)cc21 [E^+, ethidium]",Fluorescence color,[3],Red
same,Extinction coefficient (mM^−1)*,[3],232 mM⁻¹
same,Emission maximum (nm),[3],603 nm
same,Emission maximum (nm),[3]; listed as ethidium,605 nm
